A short description of the data set: solvent given as SMILES.

Structures are written as SMILES.

On to `CCN(CC)c1ccc(/N=N/c2cc3c(=O)[nH][nH]c(=O)c3cc2[N+](=O)[O-])c(NC(C)=O)c1`, for which the absorption maximum is, setting by setting: (in CC(=O)O) 532 nm; (in CN(C)C=O) 518 nm; (in CS(C)=O) 519 nm.
Turning to `COc1ccc2c(c1)SCC1=C(c3ccccc3)C3=Nc4c(-c5ccccc5)c5c(n4[B-](F)(F)[N+]3=C12)-c1ccc(OC)cc1SC5`, the absorption maximum (in ClC(Cl)Cl) was determined as 706 nm.
Consider `c1ccc(-c2nc3c(c4c2-c2ccccc2CC4)-c2ccccc2CC3)cc1`, for which the absorption maximum reads like this: (in C1CCOC1) 314 nm; (in CC#N) 308 nm; (in CCCCCC) 309 nm; (in CCOC(C)=O) 314 nm; (in CO) 318 nm; (in CS(C)=O) 316 nm. Also, the absorption maximum is recorded as 312 nm (in Cc1ccccc1) and 318 nm (in ClCCl).
The compound `O=c1oc2ccccc2c2cc(N3c4ccccc4Oc4ccccc43)ccc12` yielded an absorption maximum (in Cc1ccccc1) of 395 nm.
On to `CN1\C(=C/C=C/C=C/C2=C3C=CC(c4ccccc4)=[N+]3[B-](F)(F)n3c2ccc3-c2ccccc2)C(C)(C)c2ccccc21`, for which the absorption maximum (in CC#N) was 771 nm.
Consider `Cc1ccccc1-c1ccccc1C`, for which the absorption maximum (in C1CCCCC1) is listed as 260.08 nm.
In the case of `O=C1NC(=O)c2c1c1c3ccccc3[nH]c1c1[nH]c3ccccc3c21`, the absorption maximum runs as follows: (in C1CCOC1) 400 nm; (in CC#N) 402 nm; (in CC(C)OC(C)C) 391 nm; (in CCCCOCCCC) 393 nm; (in CCO) 405 nm; (in CCOC(C)=O) 398 nm. The compound also showed an absorption maximum (in CN(C)C=O) of 409 nm, an absorption maximum (in Cc1ccccc1) of 398 nm and an absorption maximum (in ClCCl) of 401 nm.
As to `CC(=O)C1=C(O)CC2Oc3c(C(C)=O)c(O)c(C)c(O)c3C2(C)C1=O` (centres undefined), the absorption maximum (in ClC(Cl)Cl) stood at 340 nm.
Turning to `[NH3+]c1ccc2ccc(O)cc2c1`, under “in O”, the absorption maximum came to 328 nm.
As to `CCC1=C(C)C2=C(c3cc(C(=O)Cl)cc(C(=O)Cl)c3)c3c(C)c(CC)c(C)n3[B-](F)(F)[N+]2=C1C`, the absorption maximum was found to be 528 nm (in C1CCOC1); 524 nm (in CC#N); 529 nm (in CN(C)C=O); 531 nm (in Cc1ccccc1); 532 nm (in ClC(Cl)Cl).
As to `Nc1nc2ccc([N+](=O)[O-])cc2s1`, the absorption maximum is, setting by setting: (in CC#N) 355 nm; (in ClCCl) 346 nm.
`CC(C)[Si]1(C(C)C)c2cc(C=C(C#N)C#N)ccc2-c2ccc(N(C)C)cc21`: the absorption maximum by setting is: (in C1CCCCC1) 480 nm; (in CC#N) 475 nm; (in CCO) 478 nm; (in CCOCC) 469 nm; (in CS(C)=O) 488 nm; (in ClCCl) 489 nm. Besides, the absorption maximum (in c1ccccc1) worked out at 480 nm.
Consider `COC(=O)c1cc(=O)n(C)c2cc(-c3ccccc3N(C)C)sc12`, for which the absorption maximum is 402 nm (in CC#N) and 406 nm (in ClCCl).
Where the note is “in Cc1ccccc1”, `CCCCOC(=O)c1cc(Cl)c2c3c(Cl)cc4c5c(cc(Cl)c(c6c(Oc7ccc(C(=O)OC)cc7)cc(C(=O)OCCCC)c1c26)c53)C(=O)N(c1c(C(C)C)cccc1C(C)C)C4=O` displayed an absorption maximum of 507 nm.
Turning to `O=c1[nH]c2ccccc2[nH]1`, the absorption maximum turned out to be 291 nm (in C1CCOC1); 281 nm (in CC#N); 285 nm (in CC(C)=O); 292 nm (in CCCCCCC); 287 nm (in CCCCCl); 280 nm (in CCCCO). Besides, the absorption maximum is listed as 280 nm (in CCCO), 280 nm (in CCCOCCC) and 280 nm (in CCO).
For `CC(C)(C)c1ccc(-c2nc3c4ccc(-c5cc6ccccc6c6ccccc56)cc4c4cc(-c5cc6ccccc6c6ccccc56)ccc4c3n2-c2ccc(C(C)(C)C)cc2)cc1`, the absorption maximum reads like this: (in C1CCOC1) 325 nm; (in C1COCCO1) 325 nm; (in CC#N) 324 nm; (in CCCCCC) 325 nm; (in CCCCOCCCC) 326 nm; (in CCN(CC)CC) 325 nm. Besides, the absorption maximum is, setting by setting: (in CCOC(C)=O) 324 nm; (in CCOCC) 234 nm; (in CN(C)C=O) 328 nm; (in Cc1ccccc1) 327 nm; (in ClC=C(Cl)Cl) 327 nm; (in ClCCl) 328 nm.
`CCCCn1c(-c2ccc(-c3nnc(-c4cccs4)o3)cc2)nc(-c2ccccc2)c1-c1ccccc1`: where the note is “in ClCCl”, the absorption maximum turned out to be 340 nm.
Consider `c1ccc(-c2cc3cccc4cc(-c5ccccc5)c5cc(-c6cc7[b-]8c(c6)c(-c6ccccc6)cc6cccc(cc7-c7ccccc7)[n+]86)cc2[b-]5[n+]34)cc1`, for which the absorption maximum (in C1CCCCC1) came to 444 nm.
`c1ccc(N(c2ccccc2)c2ccc(-c3nc4c5ccccc5c5ccccc5c4n3-c3ccccc3)cc2)cc1` displayed an absorption maximum (in ClCCl) of 400 nm.
`CCOC(=O)COc1ccc(C(c2c(C)[nH]c3ccccc23)c2c(C)[nH]c3ccccc23)cc1OC` came in with an absorption maximum (in CC#N) of 290 nm, an absorption maximum (in CO) of 291 nm and an absorption maximum (in O) of 290 nm.
Compound `CCCCC(CC)COc1cc(OCC(CC)CCCC)c2c#cc3ccc4oc5ccc(c#cc6cc(c#cc7ccc8oc9ccc(c#cc1c2)cc9c8c7)c(C(CCCC)OCCC)cc6C(CCCC)OCCC)cc5c4c3` (centres undefined) gave an absorption maximum (in ClCCl) of 328 nm.
In the case of `COC(=O)C(CCCCNC(=O)CCNc1cccc2ccccc12)NC(C)=O` (centres undefined), for the setting “in CCO”, the absorption maximum came out at 330 nm.
For `Cc1ccc2c(c1)C1(c3ccccc3-c3ccccc31)c1cc(C)ccc1N2c1ccc2c(c1)Oc1ccccc1P2(=O)c1ccccc1` (centres undefined), under “in Cc1ccccc1”, the absorption maximum turned out to be 311.25 nm.
In turn, `COc1cccc(OC)c1-c1c2ccc(=[N+]3CCN(C(=O)OC(C)(C)C)CC3)cc-2oc2cc(N3CCN(C(=O)OC(C)(C)C)CC3)ccc12` displayed an absorption maximum (in ClCCl) of 555 nm.
On the same count and under the same terms, the same measure for `O=P(c1ccccc1)(c1ccccc1)c1cccc(-c2nc3ccccc3n2-c2cccc(P(=O)(c3ccccc3)c3ccccc3)c2)c1`: 304 nm.
For the compound `COc1cc(N(CC(=O)[O-])CC(=O)[O-])c2nc(COc3cc(C)ccc3N(CC(=O)[O-])CC(=O)[O-])ccc2c1`, the absorption maximum (in O) is 356 nm.
Turning to `COc1ccc(-c2c(-c3ccc(C)cc3)c3n(c2-c2ccc(C)cc2)[B-](F)(F)[N+]2=C(c4ccc(C)cc4)C(/C=C/C(=O)OC4CC[C@@]5(C)C(=CC[C@H]6[C@@H]7CC[C@H]([C@H](C)CCCC(C)C)[C@@]7(C)CC[C@@H]65)C4)=C(c4ccc(C)cc4)C2=N3)cc1` (some centres undefined), for the setting “in ClC(Cl)Cl”, the absorption maximum stood at 662 nm.
`CC(C)(C)c1cc2ccc3cccc4c3c2c(c1)c1nc2c3cc(C(C)(C)C)cc5ccc6cccc(c(=O)n2c41)c6c53` came in with an absorption maximum (in C1CCOC1) of 395 nm; an absorption maximum (in CC#N) of 389 nm; an absorption maximum (in CC(C)=O) of 391 nm; an absorption maximum (in CCCCCC) of 393 nm; an absorption maximum (in CCO) of 390 nm; an absorption maximum (in CCOC(C)=O) of 390 nm. Also, the absorption maximum is 382 nm (in CO); 391 nm (in CS(C)=O); 392 nm (in Cc1ccc(C)cc1); 395 nm (in ClC(Cl)(Cl)Cl); 395 nm (in ClC(Cl)Cl); 395 nm (in c1ccccc1).
The compound `CCN(CC)c1ccc2cc3c([o+]c2c1)/C(=C/Nc1ccccc1)CCC3` returned an absorption maximum (in CCO) of 605 nm, an absorption maximum (in ClC(Cl)Cl) of 616 nm and an absorption maximum (in ClCCl) of 615 nm.
Compound `COc1cc2c(cc1-c1ccc(C=O)cc1)Cc1c3c(c4c(c1-2)-c1cc(OC)c(-c2ccc(C=O)cc2)cc1C4)C(=O)N(CCC(C)C)C3=O` had an absorption maximum (in C1CCOC1) of 414 nm.
In the case of `CC1=C(C(C)(C)C)C(C)=[N+]2C1=C(C)c1c(C)c(C(C)(C)C)c(C)n1[B-]2(F)F`, the absorption maximum came to 529 nm (in C1CCCCC1); 525.1 nm (in C1CCOC1); 525.1 nm (in C1COCCO1); 520.8 nm (in CC#N); 522.5 nm (in CC(C)=O); 527.5 nm (in CC(C)CC(C)(C)C). Besides, the absorption maximum is, setting by setting: (in CCC(C)C) 527.1 nm; (in CCCC(C)=O) 523.7 nm; (in CCCCCC) 527.5 nm; (in CCCCCCCCO) 527.3 nm; (in CCCCCCO) 526.7 nm; (in CCCCO) 526.1 nm. The absorption maximum runs as follows: (in CCCCOC(C)=O) 524.3 nm; (in CCCO) 525.3 nm; (in CCO) 524.3 nm; (in CCOC(C)=O) 523.2 nm; (in CCOCC) 525.1 nm; (in CN(C)C=O) 524 nm. Besides, the absorption maximum by setting is: (in CNC=O) 522.3 nm; (in CO) 522.9 nm; (in COC(C)=O) 522.5 nm; (in OCC(F)(F)F) 521.6 nm.
Under “in ClCCl”, `c1ccc2c(c1)ccc1ccc3ccc4ccc5ccccc5c4c3c12` returned an absorption maximum of 435 nm.
As to `CC(C)(C)c1ccc2c(c1)c1cc(C(C)(C)C)ccc1n2-c1ccc(C(=O)c2ccc(-n3c4ccc(C(C)(C)C)cc4c4cc(C(C)(C)C)ccc43)nc2)cn1`, the absorption maximum by setting is: (in C1CCOC1) 377.31 nm; (in Cc1ccccc1) 383.97 nm; (in ClCCl) 382.72 nm.

For the origin of these results see the Deep4Chem optical property database.
